System: silk fibroin powder
Test: Evaluation of adsorptivity of groups containing aromatic rings to proteins having a β-sheet structure
Assay type: binding
Details: for Adsorption rate to fibroin (%): 0.02 mM, 0.15 mL methanol solution on 10 mg silk fibroin powder, air-dried, 0.15 mL water, stirred 5 minutes, supernatant absorbance; for Adsorptivity: class of adsorption rate to fibroin
Procedure: After distillation of methanol by air-drying, 0.15 mL of water was added. After stirring for 5 minutes, the supernatant was collected. The concentration of groups containing aromatic rings in the collected supernatant liquid and the percentage of adsorption of groups containing aromatic rings to fibroin were calculated by absorbance measurement, and the adsorptivity of groups containing aromatic rings to proteins having a β-sheet structure was evaluated by the following criteria.
“Evaluation A” and “Evaluation B” indicate the level at which groups containing aromatic rings adsorb strongly to proteins having a β-sheet structure, and “Evaluation C” indicates the low adsorptivity of groups containing aromatic rings.
• A: 90% or more • B: 60% or more but less than 90% • C: Less than 60%

Compound	Adsorption rate to fibroin (%)	Adsorptivity
O=C(O)CCNc1ccc(-c2nc3ccccc3s2)cc1 [Compound 2]	79%	B (60% or more but less than 90%)
Thioflavin T acid [reference compound]	91%	A (90% or more)
O=C(O)CCOc1ccccc1-c1nc2ccccc2s1 [Compound 4]	71%	B (60% or more but less than 90%)
